Read-outs that look alike come from different tables or passages of the source. Where only a bound is given, the exact number is not on record here.

For one experiment, the target named is T1, Tg DHFR (Toxoplasma gondii, UniProt Q07422).
T1 sequence (Q07422 1-610): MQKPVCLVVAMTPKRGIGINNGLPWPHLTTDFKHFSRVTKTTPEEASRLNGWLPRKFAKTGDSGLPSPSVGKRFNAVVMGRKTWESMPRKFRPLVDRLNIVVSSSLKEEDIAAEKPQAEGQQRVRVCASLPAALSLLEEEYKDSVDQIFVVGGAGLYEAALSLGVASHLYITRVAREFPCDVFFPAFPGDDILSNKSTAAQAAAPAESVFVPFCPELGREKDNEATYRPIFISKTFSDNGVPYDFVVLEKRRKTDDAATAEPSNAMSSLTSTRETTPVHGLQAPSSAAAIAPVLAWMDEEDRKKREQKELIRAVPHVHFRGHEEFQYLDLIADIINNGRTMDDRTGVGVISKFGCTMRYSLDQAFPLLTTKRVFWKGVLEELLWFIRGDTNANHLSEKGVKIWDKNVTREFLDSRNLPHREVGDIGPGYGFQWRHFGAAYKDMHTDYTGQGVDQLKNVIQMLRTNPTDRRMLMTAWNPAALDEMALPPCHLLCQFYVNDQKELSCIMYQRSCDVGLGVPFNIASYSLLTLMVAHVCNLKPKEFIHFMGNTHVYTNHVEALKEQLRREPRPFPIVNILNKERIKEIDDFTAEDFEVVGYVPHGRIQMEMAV
Put plainly: biochemical. Particulars: for rl/tg: selectivity ratio. Format: biochemical. The procedure:
(§1) The selectivity ratio is a measure of the selectivity of a compound for Pc DHFR or Tg DHFR and is expressed as the IC50 value of the DHFR from rate liver (RL) divided by the IC50 value of either the Pc DHFR or the Tg DHFR, depending on which organism the compounds are being tested against. For example, the selectivity ratio of a compound is calculated by the following formula: [formula]

Another experiment addresses T2, RL DHFR (Rattus norvegicus, UniProt Q920D2).
T2 construct: Toxoplasmosis gondii (Tg) and rat liver (RL); from tissue; host or cells: rat liver
T2 sequence (Q920D2 1-187): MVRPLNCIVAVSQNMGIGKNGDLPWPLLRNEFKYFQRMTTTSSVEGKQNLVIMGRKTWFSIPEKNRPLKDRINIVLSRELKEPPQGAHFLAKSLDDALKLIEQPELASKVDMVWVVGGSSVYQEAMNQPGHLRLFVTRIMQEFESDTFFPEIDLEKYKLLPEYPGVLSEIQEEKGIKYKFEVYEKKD
Put plainly: Inhibition of DHFR from rat liver. Format: biochemical. The procedure: as §1

Experiment [1] has as its target T3, Pc DHFR (Pneumocystis carinii, UniProt P16184).
T3 sequence (P16184 1-206): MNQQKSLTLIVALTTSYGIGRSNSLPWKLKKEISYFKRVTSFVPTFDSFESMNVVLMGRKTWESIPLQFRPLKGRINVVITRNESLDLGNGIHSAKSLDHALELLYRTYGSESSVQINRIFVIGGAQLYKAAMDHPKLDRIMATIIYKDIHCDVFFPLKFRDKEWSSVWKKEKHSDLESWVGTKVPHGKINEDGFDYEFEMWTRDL
Kind of experiment: biochemical.

Experiment [2] addresses E-coli thymidylate synthase (ecTS) (Escherichia coli, UniProt P0A884). Put plainly: Inhibition of E. coli thymidylate synthase. The format is biochemical. Particulars: for % in parentheses after the > value, ecTS: Table 22, at the concentration given. Here is the method: All of the compounds were tested against human cells, L. casei, E. coli, and S. faecium.
Experiment [3] addresses T3, Pc DHFR. Format: biochemical. The note with it: IC50 rlDHFR/IC50 pcDHFR. Here is the method:
as §1

The mark [4] stands for this setting: Table 22, read-out: tgDHFR IC50.
Where [5] appears, read: Table 22, read-out: rlDHFR IC50.
The mark [6] stands for this setting: Table 22, read-out: pcDHFR IC50.
Setting [7] is: Table 25, read-out: Inhibitor Concentrations (IC50) rlDHFR.
The mark [8] stands for this setting: Table 16, read-out: Pc DHFR IC50.
[9] abbreviates: Table 25, read-out: Inhibitor Concentrations (IC50) pcDHFR.
Setting [10] is: Table 25, read-out: Inhibitor Concentrations (IC50) tgDHFR.
[11] abbreviates: Table 7, read-out: Tg DHFR IC50.
The mark [12] stands for this setting: Table 7, read-out: RL DHFR IC50.
Where [13] appears, read: Table 7, read-out: Pc DHFR IC50.
[14] abbreviates: Table 16, read-out: Tg DHFR IC50.
[15] abbreviates: Table 16, read-out: RL DHFR IC50.

Chain of E-coli thymidylate synthase (ecTS) (P0A884 whole entry): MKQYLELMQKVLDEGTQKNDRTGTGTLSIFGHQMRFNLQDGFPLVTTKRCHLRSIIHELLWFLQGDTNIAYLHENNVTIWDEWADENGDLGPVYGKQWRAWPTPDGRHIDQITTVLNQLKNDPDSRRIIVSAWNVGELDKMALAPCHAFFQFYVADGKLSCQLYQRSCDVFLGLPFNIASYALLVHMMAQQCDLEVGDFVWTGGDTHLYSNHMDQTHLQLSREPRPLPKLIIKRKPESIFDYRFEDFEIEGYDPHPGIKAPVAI

In the case of `Nc1nc(O)c2c(CNc3cccc(Cl)c3)c[nH]c2n1` [Compound 415], the IC50 at Tg DHFR (setting [4]) is 3.5 µM; at RL DHFR (setting [5]) it was more than 26 µM; at Pc DHFR [1] (setting [6]), more than 26 µM; in experiment [2], more than 180 µM. Further, the rl/tg at Tg DHFR (Table 22) was more than 7. Besides, the “% in parentheses after the > value, ecTS” value in experiment [2] is listed as 26%.

On to `Nc1nc(N)c2c(CSc3ccc4ccccc4c3)coc2n1` [Compound 161, 2,4-Diamino-5-[(2-naphthylthio)methyl]furo[2,3-d]pyrimidine], for which the IC50 at RL DHFR (setting [7]) came to 12.3 µM; against Pc DHFR [1] it was 0.66 µM; on Pc DHFR [1] (setting [8]) it was 0.65 µM; on Pc DHFR [1] (setting [9]), 0.65 µM.

On to `CCOc1cc(Cc2cnc(N)nc2N)cc(OCC)c1-n1cccc1` [epiroprim, reference compound], for which the Selectivity ratio rl/pc on Pc DHFR [3] was 12.8. Also, the Selectivity ratio rl/tg on Tg DHFR (IC50 rlDHFR/IC50 tgDHFR) came out at 70.6. Besides, the IC50 at Tg DHFR (setting [10]) is 0.48 µM.

Regarding `Nc1nc(N)c2c(CNc3ccccc3)cnc-2[nH]1` [Compound 8, 2,4-diamino-5-(anilinomethyl)pyrrolo[2,3-d]pyrimidine], on Tg DHFR (Table 7, IC50 RL DHFR divided by IC50 Tg DHFR), the “Selectivity Ratio: RL DHFR/Tg” value is given as more than 65. For the same compound, the results for the IC50 at Tg DHFR (setting [11]), on RL DHFR (setting [12]) and at Pc DHFR [1] (setting [13]) were 3.9 µM, more than 252 µM and 252 µM, respectively. In addition, on Pc DHFR [1] (Table 7, IC50 RL DHFR divided by IC50 Pc DHFR), the “Selectivity Ratio: RL DHFR/Pc DHFR” value is listed as more than 1.

In the case of `CCOc1ccc(OCC)c(NCc2c[nH]c3nc(N)nc(N)c23)c1` [Compound 5, 2,4-diamino-5-[(2′,5′-diethoxyanilino)methyl]pyrrolo[2,3-d]pyrimidine], the results for the IC50 on Tg DHFR (setting [11]), on RL DHFR (setting [12]) and at Pc DHFR [1] (setting [13]) were 5.3 µM, 70 µM and more than 21 µM, respectively.

In the case of `Nc1nc(N)c2c(CSc3ccccc3)coc2n1` [Compound 159, 2-4-Diamino-5-[(phenylthio)methyl]furo[2,3-d]pyrimidine], the IC50 at RL DHFR (setting [7]) was 252 µM.

Turning to `COc1ccc(OC)c(NCc2cnc3[nH]c(N)nc(N)c2-3)c1` [Compound 4, 2,4-diamino-5-[(2′,5′-dimethoxyanilino)methyl]pyrrolo[2,3-d]pyrimidine], the IC50 on Tg DHFR (setting [11]) was determined as 1.7 µM; on RL DHFR (setting [12]), 156 µM.

With `Nc1nc(N)c2c(CNc3ccccc3Oc3ccccc3)coc2n1` [Compound 165, 2,4-Diamino-5-[(2′-phenoxyanilino)methyl]furo[2,3-d]pyrimidine], the IC50 on Tg DHFR (setting [14]), at Tg DHFR (setting [10]), at RL DHFR (setting [15]), on RL DHFR (setting [7]), on Pc DHFR [1] (setting [8]) and at Pc DHFR [1] (setting [9]) was more than 12 µM throughout.

Regarding `COc1cc(NCc2c[nH]c3nc(N)[nH]c(=O)c23)cc(OC)c1` [Compound 409], the IC50 on Tg DHFR (setting [4]) was 2.6 µM; at RL DHFR (setting [5]) it was more than 20 µM; at Pc DHFR [1] (setting [6]) it was more than 20 µM; in experiment [2] it was more than 160 µM. Moreover, the rl/tg at Tg DHFR (Table 22) was more than 8. In addition, the “% in parentheses after the > value, ecTS” value in experiment [2] is on record as 0%.

Take `Nc1nc(N)c2c(CNc3ccccc3-c3ccccc3)coc2n1` [Compound 167, 2,4-Diamino-5-[(2′-phenylanilino)methyl]furo[2,3-d]pyrimidine]: the IC50 at RL DHFR (setting [15]) came to 187 µM.

Take `Nc1nc(N)c2c(CSc3cccc4ccccc34)coc2n1` [Compound 160, 2,4-Diamino-5-[(1-naphthylthio)methyl]furo[2,3-d]pyrimidine]: the IC50 at RL DHFR (setting [7]) was determined as 23 µM.

Turning to `CN(Cc1coc2nc(N)nc(N)c12)c1cc(Cl)c(Cl)c(Cl)c1` [Compound 172, 2,4-Diamino-5-[(N-methyl-3′,4′,5′-trichloroanilino)methyl]furo[2,3-d]-pyrimidine], the IC50 at Pc DHFR [1] (setting [8]) and at Pc DHFR [1] (setting [9]) was 284 µM each time.

Regarding `COc1ccc(OC)c(Cc2cnc3nc(N)nc(N)c3c2C)c1` [PTX, piritrexim, reference compound], the IC50 on RL DHFR (setting [12]) was 0.001 µM.

With `Nc1nc(N)c2c(CNc3cccc4ccccc34)coc2n1` [Compound 162, 2,4-Diamino-5-[(1-naphthylamino)methyl]furo[2,3-d]pyrimidine], the figures for the IC50 on Tg DHFR (setting [10]), at Pc DHFR [1] (setting [8]) and on Pc DHFR [1] (setting [9]) were 37 µM, 13.5 µM and 13.5 µM, respectively.

As for `COc1cc(NCc2c[nH]c3nc(N)nc(O)c23)cc(OC)c1OC` [Compound 411], the IC50 at Tg DHFR (setting [4]) is 6.9 µM; on RL DHFR (setting [5]), more than 22 µM; at Pc DHFR [1] (setting [6]), more than 22 µM; in experiment [2], more than 290 µM. In addition, the rl/tg at Tg DHFR (Table 22) is more than 3. Moreover, the “% in parentheses after the > value, ecTS” value in experiment [2] was found to be 8%.

In the case of `COc1ccc(NCc2c[nH]c3nc(N)[nH]c(=O)c23)c(OC)c1` [Compound 410], the IC50 was 7.1 µM on Tg DHFR (setting [4]), more than 16 µM at RL DHFR (setting [5]), more than 16 µM on Pc DHFR [1] (setting [6]) and more than 160 µM in experiment [2]. Also, on Tg DHFR (Table 22), the rl/tg is listed as more than 1.4. Besides, the “% in parentheses after the > value, ecTS” value in experiment [2] is 8%.

On to `COc1cccc(NCc2coc3nc(N)nc(N)c23)c1` [Compound 175, 2,4-Diamino-5-[(3′-methoxyanilino)methyl]furo[2,3-d]-pyrimidine], for which the IC50 at Tg DHFR (setting [14]), at Tg DHFR (setting [10]), at RL DHFR (setting [15]), at RL DHFR (setting [7]), on Pc DHFR [1] (setting [8]) and on Pc DHFR [1] (setting [9]) was more than 31.3 µM in each case.

For the compound `COc1ccc(NCc2c[nH]c3nc(N)nc(N)c23)cc1OC` [Compound 2, 2,4-diamino-5-[(3′,4′-dimethoxyanilino)methyl]pyrrolo[2,3-d]pyrimidine], the IC50 at Tg DHFR (setting [11]) amounted to 4.3 µM; on RL DHFR (setting [12]), 116 µM; on Pc DHFR [1] (setting [13]), 119 µM.

Regarding `Nc1nc2[nH]cc(CNc3ccc(Cl)cc3Cl)c2c(=O)[nH]1` [Compound 414], the IC50 is 2.2 µM on Tg DHFR (setting [4]), more than 15 µM on RL DHFR (setting [5]) and more than 15 µM on Pc DHFR [1] (setting [6]). The rl/tg on Tg DHFR (Table 22) is reported as more than 7.

For the compound `Nc1nc(O)c2c(CNc3cc(Cl)cc(Cl)c3)c[nH]c2n1` [Compound 413], the values for the IC50 on Tg DHFR (setting [4]), at RL DHFR (setting [5]) and on Pc DHFR [1] (setting [6]) were 3 µM, more than 63 µM and 66.2 µM, respectively. Besides, the rl/tg on Tg DHFR (Table 22) was more than 21.

Turning to `Nc1nc(N)c2c(CNc3ccc(Oc4ccccc4)cc3)coc2n1` [Compound 166, 2,4-Diamino-5-[(4′-phenoxyanilino)methyl]furo[2,3-d]pyrimidine], the IC50 at Tg DHFR (setting [14]) and at Tg DHFR (setting [10]) was 32.4 µM throughout.

Consider `CN(Cc1coc2nc(N)nc(N)c12)c1ccc(Cl)c(Cl)c1` [Compound 171, 2,4-Diamino-5-[(N-methyl-3′,4′-dichloroanilino)methyl]furo[2,3-d]pyrimidine], for which the IC50 on Tg DHFR (setting [14]) is more than 27 µM; at Tg DHFR (setting [10]), more than 27 µM; on RL DHFR (setting [15]) it was more than 27 µM; on RL DHFR (setting [7]), more than 27 µM; on Pc DHFR [1] (setting [8]), 44.8 µM; on Pc DHFR [1] (setting [9]), 44.8 µM.

Take `Nc1nc(N)c2c(CNc3ccc(Cl)c(Cl)c3)c[nH]c2n1` [Compound 6, 2,4-diamino-5-[(3′,4′dichloroanilino)methyl]pyrrolo[2,3-d]pyrimidine]: the IC50 is 1.4 µM at Tg DHFR (setting [11]), 14.4 µM at RL DHFR (setting [12]) and 35.3 µM on Pc DHFR [1] (setting [13]).

Consider `COc1ccc(OC)c(NCc2c[nH]c3nc(N)nc(O)c23)c1` [Compound 408], for which the IC50 at Tg DHFR (setting [4]) is 2.2 µM; on RL DHFR (setting [5]), more than 47 µM; on Pc DHFR [1] (setting [6]), more than 47 µM; in experiment [2], more than 160 µM. For the same compound, the rl/tg at Tg DHFR (Table 22) is recorded as more than 21. In addition, the “% in parentheses after the > value, ecTS” value in experiment [2] was 21%.
